Source: patent publication US10738042B2, “Phosphonamidates that are Bcl family antagonists for use in clinical management of conditions caused or mediated by senescent cells and for treating cancer” (Unity Biotechnology, priority 2018, dated 2020)

Assays:
[1] = tested on: 3MR or INK-ATTAC mice exposed to cigarette smoke; assay: Cigarette smoke COPD model, oxygen saturation by pulse oximeter; assay type: in vivo, mouse; settings: after two months of cigarette smoke exposure; FIG. 8
Excerpt: The mice used in this study include the 3MR strain, described in US 2017/0027139 A1 and in Demaria et al., Dev Cell. 2014 Dec. 22; 31(6): 722-733. The 3MR mouse has a transgene encoding thymidine kinase that converts the prodrug ganciclovir (GCV) to a compound that is lethal to cells. The enzyme in the transgene is placed under control of the p16 promoter, which causes it to be specifically expressed in senescent cells. Treatment of the mice with GCV eliminates senescent cells.
Other mice used in this study include the INK-ATTAC strain, described in US 2015/0296755 A1 and in Baker et al., Nature 2011 Nov. 2; 479(7372):232-236. The INK-ATTAC mouse has a transgene encoding switchable caspase 8 under control of the p16 promoter. The caspase 8 can be activated by treating the mice with the switch compound AP20187, whereupon the caspase 8 directly induces apoptosis in senescent cells, eliminating them from the mouse.
To conduct the experiment, six-week-old 3MR (n=35) or INK-ATTAC (n=35) mice were chronically exposed to cigarette smoke generated from a Teague TE-10 system, an automatically-controlled cigarette smoking machine that produces a combination of side-stream and mainstream cigarette smoke in a chamber, which is transported to a collecting and mixing chamber where varying amounts of air is mixed with the smoke mixture. The COPD protocol was adapted from the COPD core facility at Johns Hopkins University (Rangasamy et al., 2004, J. Clin. Invest. 114:1248-1259; Yao et al., 2012, J. Clin. Invest. 122:2032-2045).
Mice received a total of 6 hours of cigarette smoke exposure per day, 5 days a week for 6 months. Each lighted cigarette (3R4F research cigarettes containing 10.9 mg of total particulate matter (TPM), 9.4 mg of tar, and 0.726 mg of nicotine, and 11.9 mg carbon monoxide per cigarette [University of Kentucky, Lexington, Ky.]) was puffed for 2 seconds and once every minute for a total of 8 puffs, with the flow rate of 1.05 L/min, to provide a standard puff of 35 cm3. The smoke machine was adjusted to produce a mixture of side stream smoke (89%) and mainstream smoke (11%) by smoldering 2 cigarettes at one time. The smoke chamber atmosphere was monitored for total suspended particulates (80-120 mg/m3) and carbon monoxide (350 ppm). […]
After two months of cigarette smoke (CS) exposure, lung function was assessed by monitoring oxygen saturation using the MouseSTAT PhysioSuite™ pulse oximeter (Kent Scientific). […] Mice were monitored for 30 seconds and the average peripheral capillary oxygen saturation (SpO2) measurement over this duration was calculated.

[2] = tested on: cancer cells in human patients; settings: cited from earlier work
[3] = tested on: C57BL/6J mice with ACL surgery-induced osteoarthritis; assay: Osteoarthritis model, histopathology of joint tissue; assay type: in vivo, mouse; settings: FIGS. 6B-6D
Protocol: (§1) The model was implemented as follows. C57BL/6J mice underwent surgery to cut the anterior cruciate ligament of one rear limb to induce osteoarthritis in the joint of that limb. During week 3 and week 4 post-surgery, the mice were treated with 5.8 μg of Nutlin-3A (n=7) per operated knee by intra-articular injection, q.o.d. for 2 weeks. At the end of 4 weeks post-surgery, joints of the mice were monitored for presence of senescent cells, assessed for function, monitored for markers of inflammation, and underwent histological assessment.

[4] = tested on: LDLR-/- mice fed a high fat diet; assay: Atherosclerosis model, body composition (MRI) and circulating blood cell counts (Hemavet); assay type: in vivo, mouse; settings: timepoint 3 (week 12)
Protocol: (§2) Two groups of LDLR−/− mice (10 weeks) are fed a high fat diet (HFD) (Harlan Teklad TD.88137) having 42% calories from fat, beginning at Week 0 and throughout the study. Two groups of LDLR−/− mice (10 weeks) are fed normal chow (−HFD). From weeks 0-2, one group of HFD mice and −HFD mice are treated with Nutlin-3A (25 mg/kg, intraperitoneally). One treatment cycle is 14 days treatment, 14 days off. Vehicle is administered to one group of HFD mice and one group of −HFD mice. At week 4 (timepoint 1), one group of mice are sacrificed and to assess presence of senescent cells in the plaques. For the some of the remaining mice, Nutlin-3A and vehicle administration is repeated from weeks 4-6. At week 8 (timepoint 2), the mice are sacrificed and to assess presence of senescent cells in the plaques. The remaining mice are treated with Nutlin-3A or vehicle from weeks 8-10. At week 12 (timepoint 3), the mice are sacrificed and to assess the level of plaque and the number of senescent cells in the plaques.
(§3) At the end of timepoint 3, LDLR−/− mice fed a HFD and treated with Nutlin-3A or vehicle (n=3 for all groups) were sacrificed, and aortas were dissected and stained with Sudan IV to detect the presence of lipid. Body composition of the mice was analyzed by MRI, and circulating blood cells were counted by Hemavet™.

[5] = tested on: C57BL/6J mice with ACL surgery-induced osteoarthritis; assay: Osteoarthritis model, weight bearing test; assay type: in vivo, mouse; settings: 4 weeks post-surgery; FIG. 6A
Protocol: as §1
Function of the limbs was assessed 4 weeks post-surgery by a weight bearing test to determine which leg the mice favored. The mice were allowed to acclimate to the chamber on at least three occasions prior to taking measurements. Mice were maneuvered inside the chamber to stand with one hind paw on each scale. The weight that was placed on each hind limb was measured over a three second period. At least three separate measurements were made for each animal at each time point. The results were expressed as the percentage of the weight placed on the operated limb versus the contralateral unoperated limb.

[6] = tested on: p16, IL-6, MMP13 expression in the operated joint; assay: Osteoarthritis model (ACL surgery), qRT-PCR of senescence markers and SASP factors in operated joints; assay type: in vivo, mouse; settings: 5.8 μg per operated knee intra-articular, 4 weeks post-surgery
Protocol: as §1
Two control groups of mice were included in the studies performed: one group comprising C57BL/6J or 3MR mice that had undergone a sham surgery (n=3) (i.e., surgical procedures followed except for cutting the ACL) and intra-articular injections of vehicle parallel to the GCV (ganciclovir) treated group; and one group comprising C57BL/6J or 3MR mice that had undergone an ACL surgery and received intra-articular injections of vehicle (n=5) parallel to the GCV-treated group. RNA from the operated joints of mice from the Nutlin-3A treated mice was analyzed for expression of SASP factors (mmp3, IL-6) and senescence markers (p16). qRT-PCR was performed to detect mRNA levels.

[7] = tested on: SASP factors and senescent cell markers in the aortic arch; assay: Atherosclerosis model, RT-PCR of SASP factors and senescent cell markers in aortic arches; assay type: in vivo, mouse; settings: HFD, 25 mg/kg intraperitoneally
Protocol: as §2, with “At week 8 (timepoint 2), the mice are sacrificed and to assess presence of senescent cells in the plaques. The remaining mice are treated with Nutlin-3A or vehicle from weeks 8-10. At week 12 (timepoint 3), the mice are sacrificed and to assess the level of plaque and the number of senescent cells in the plaques.” left out
At the end of timepoint 1, LDLR−/− mice fed a HFD and treated with Nutlin-3A or vehicle were sacrificed (n=3, all groups), and the aortic arches were dissected for RT-PCR analysis of SASP factors and senescent cell markers. Values were normalized to GAPDH and expressed as fold-change versus age-matched, vehicle-treated LDLR−/− mice on a normal diet.
At the end of timepoint 2, LDLR−/− mice fed a HFD and treated with Nutlin-3A or vehicle (n=3 for all groups) were sacrificed, and aortic arches were dissected for RT-PCR analysis of SASP factors and senescent cell markers. Values were normalized to GAPDH and expressed as fold-change versus age-matched, vehicle-treated LDLR−/− mice on a normal diet.

[8] = tested on: LDLR-/- mice fed a high fat diet; assay: Atherosclerosis model, Sudan IV staining of aortas for plaque; assay type: in vivo, mouse; settings: HFD; 25 mg/kg intraperitoneally; timepoint 3 (week 12); FIG. 9
Protocol: as §2, §3

In the case of `Nc1nc(O)c2ncn(COC(CO)CO)c2n1` [ganciclovir], the “SpO2 levels compared with untreated controls” value [1] is reported as “statistically significant increases”.
In the case of `CC1(C)CCC(c2ccc(Cl)cc2)=C(CN2CCN(c3ccc(C(=O)NS(=O)(=O)c4ccc(N[C@H](CCN5CCOCC5)CSc5ccccc5)c(S(=O)(=O)C(F)(F)F)c4)cc3)CC2)C1` [ABT-263], the “SpO2 levels compared with untreated controls” value [1] is reported as “statistically significant increases”.
In the case of `CC[C@H](C(=O)N1CCCC[C@H]1C(=O)O[C@H](CCc1ccc(OC)c(OC)c1)c1cccc(OCC(=O)NCC(CNC(=O)COc2cccc([C@@H](CCc3ccc(OC)c(OC)c3)OC(=O)[C@@H]3CCCCN3C(=O)[C@@H](CC)c3cc(OC)c(OC)c(OC)c3)c2)CN(C)C)c1)c1cc(OC)c(OC)c(OC)c1` [AP2018], the “SpO2 levels compared with untreated controls” value [1] is reported as “statistically significant increases”.
In the case of `CN(C)CC[C@H](CSc1ccccc1)Nc1ccc(S(=O)(=O)NC(=O)c2ccc(N3CCN(Cc4ccccc4-c4ccc(Cl)cc4)CC3)cc2)cc1[N+](=O)[O-]` [ABT-737], the “effect against cancer cells in human patients” value [2] is listed as “effective against some types of cancer cells”.
With `COc1ccc(C2=N[C@@H](c3ccc(Cl)cc3)[C@@H](c3ccc(Cl)cc3)N2C(=O)N2CCNC(=O)C2)c(OC(C)C)c1` [Nutlin-3A] the “destruction of the proteoglycan layer (histopathology)” value [3] was “completely abrogated this effect”, the “SpO2 levels compared with untreated controls” value [1] was “statistically significant increases” and the “lymphocyte counts versus vehicle treated mice” value [4] was “equivalent”. The “platelet counts versus vehicle treated mice” value [4] was “equivalent”, the “weight bearing: favoring of the unoperated hind limb over the operated hind limb” value [5] was “abrogated this effect” and the “expression of p16 in the tissue” value ([6]; q.o.d. for 2 weeks, FIG. 5A) was “reduced the expression back to below the level of the controls”. The “expression of IL-6 in the tissue” value ([6]; q.o.d. for 2 weeks, FIG. 5B) was “reduced the expression back to below the level of the controls”, the “expression of MMP13 in the tissue” value ([6]; q.o.d. for 2 weeks, FIG. 5C) was “reduced the expression back to below the level of the controls” and the “senescent cells in the joint” value [6] was “cleared senescent cells from the joint”. For the same molecule, the “expression of SASP factors and senescent cell markers MMP3, MMP13, PAI1, p21, IGFBP2, IL-1A, IL-1B” value ([7]; after one treatment cycle (timepoint 1, week 4)) was “reduced expression”, the “expression of SASP factors and senescent cell markers in the aortic arch” value ([7]; multiple treatment cycles (timepoint 2, week 8)) was “reduced expression of most markers” and the “reduction of surface area covered by plaques in the descending aorta” value [8] was “about 45%”.
